From PMC12549899 (Nature Communications, 2025)
Substitutions are numbered along the chain they refer to. Values joined by “and” are separate entries in the source; they are usually repeats but may differ in a detail not shown here. Equal entries are not always repeated.

Legend:
DrOTOP1 M573W = molecular target: T1, DrOTOP1 M573W (Danio rerio, UniProt Q7ZWK8, M573W); assay: Whole-cell patch-clamp, inhibition of acid-evoked currents, DrOTOP1 M573W (outer site); assay type: cell-based, zebrafish (Danio rerio)
T1 construct: A previously generated codon-optimized full-length DrOTOP1[8]; (UniProt: Q7ZWK8) construct; expressed in transfected cells; host or cells: HEK-293 (CRL-1573, ATCC)
T1 sequence (Q7ZWK8 1-586 M573W): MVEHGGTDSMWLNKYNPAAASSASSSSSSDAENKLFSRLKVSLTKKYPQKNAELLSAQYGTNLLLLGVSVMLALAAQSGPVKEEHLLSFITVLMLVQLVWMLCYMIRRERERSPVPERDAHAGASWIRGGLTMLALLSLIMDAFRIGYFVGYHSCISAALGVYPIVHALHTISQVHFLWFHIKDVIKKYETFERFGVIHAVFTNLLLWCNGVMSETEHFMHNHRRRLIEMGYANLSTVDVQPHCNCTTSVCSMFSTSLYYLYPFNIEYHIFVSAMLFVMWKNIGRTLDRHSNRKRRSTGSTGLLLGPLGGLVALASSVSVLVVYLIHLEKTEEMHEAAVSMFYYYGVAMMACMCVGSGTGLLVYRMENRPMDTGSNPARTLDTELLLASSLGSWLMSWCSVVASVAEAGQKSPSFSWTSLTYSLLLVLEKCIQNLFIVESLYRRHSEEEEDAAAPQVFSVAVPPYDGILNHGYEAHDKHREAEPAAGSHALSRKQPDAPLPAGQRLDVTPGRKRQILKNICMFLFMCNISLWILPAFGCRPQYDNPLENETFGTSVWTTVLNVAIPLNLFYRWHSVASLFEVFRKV
Excerpt: (§1) To functionally test the significance of the two binding sites identified by cryo-EM, we generated point mutations of DrOTOP1 using the binding poses and conformational changes observed in DrOTOP1_C2.2 to guide our mutations. As per the binding pose that best fits our cryo-EM density, C2.2 forms the following interactions in the outer site: hydrophobic packing against many non-polar residues W126, G130, M133, L134, F271, F570, and M573, and π-stacking with W532 (Fig. 5A). In addition, C2.2 could potentially form H-bonds with E267, if the sidechain is protonated or a water bridge is present, and with H574 if it moves closer (Fig. 5A). Likewise, C2.36 presents a heterocyclic nitrogen that can potentially form a H-bond with E267, similarly, provided a protonation or water bridge is present (Fig. 5B). In addition, C2.36 forms a T-shaped π-stacking interaction with H574, whose sidechain has rotated 90 degrees (compared to DrOTOP1_apo), presumably to accommodate the interaction (Fig. 5B). Considering other inhibitors discovered from the second round of screening, many contain functional groups like the carbonyl groups of Group 1 molecules and the heterocyclic nitrogen atoms of Group 2 molecules (Supplementary Fig. 3E), that can potentially form similar H-bonds with E267 as C2.2 and C2.36, assuming the binding modes are similar. In the central site, C2.2 binds with the following interactions: hydrophobic packing with residues V201, F271, A274, V278, and A388, π-stacking with F277, and H-bonding with E384 (Fig. 5C).
Each non-aromatic residue was mutated to tryptophan, which was expected to cause steric occlusion. […] This seemed appropriate given the small number of H-bonds in these pockets, the ambiguity of how the inhibitors fit the density, and the prevalence of hydrophobic packing interactions (Fig. 5A–C).
HEK-293 cells (CRL-1573, ATCC) were cultured in DMEM (Thermofisher 11995073) containing 10% fetal bovine serum (Life Technology 16000044) and Penicillin-Streptomycin (100 I.U./mL) and (100 µg/mL), respectively. Cells were transfected with WT DrOTOP1 or mutant DrOTOP1 channels in 35 mm petri dishes, with ~ 500 ng DNA and 2 μL TransIT-LT1 transfection reagent (Mirus Bio Corporation, Cat # MIR2300) following the manufacturer’s protocol. All constructs were subcloned into a pcDNA3.1 vector that adds an N-terminal fusion tag consisting of an octahistidine tag followed by eGFP, a Gly-Thr-Gly-Thr linker and a 3C protease cleavage site ([…]) followed by WT DrOTOP1, WT mOTOP1, WT hOTOP1, or mutated DrOTOP1. Point mutations were generated via In-Fusion Cloning (Takara) using single-stranded DNA primers generated through IDT and sequence confirmed by Sanger sequencing (GeneWiz).
Whole-cell patch-clamp recording was performed as previously described[6],[22],[25]. Recordings were made with an Axopatch 200B amplifier, digitized with a Digidata 1322a 16-bit data acquisition system, acquired with pClamp 8.2 and analyzed with Clampfit 10 (Molecular Devices). Recordings were sampled at 5 kHz and filtered at 1 kHz. Patch Pipettes with resistance of […] were fabricated from borosilicate glass, and only recordings with a giga-Ohm seal were used in analysis. Membrane potential was held at −80 mV for the duration of recordings. At the beginning of recordings and between, cells were washed with Tyrode’s solution (see below). Once a giga-Ohm seal was reached, cells were lifted and placed in front of microcapillary tubes controlled by a Fast-Step perfusion system (Warner Instruments) so that extracellular solutions could be rapidly exchanged during each experiment.
Standard Tyrode’s solution consisted of 145 mM NaCl, 5 mM KCl, MgCl2, 2 mM CaCl2, 20 mM D-Glucose, and 10 mM HEPES (for pH 7.4). All other extracellular patch-clamp solutions contained 160 mM NMDG-Cl, 2 mM CaCl2, and the following buffers: 10 mM HEPES (for pH 7.4), 10 mM MES (for pH 6.5-5.5), 10 mM CHES for pH 10, and 10 mM HomoPIPES for (pH 5.0). pH adjusted with HCl. […]

DrOTOP1 M133W = molecular target: T2, DrOTOP1 M133W (Danio rerio, UniProt Q7ZWK8, M133W); assay: Whole-cell patch-clamp, inhibition of acid-evoked currents, DrOTOP1 M133W; assay type: cell-based, zebrafish (Danio rerio)
T2 construct: A previously generated codon-optimized full-length DrOTOP1[8]; (UniProt: Q7ZWK8) construct; expressed in transfected cells; host or cells: HEK-293 (CRL-1573, ATCC)
T2 sequence (Q7ZWK8 1-586 M133W): T1 sequence (Q7ZWK8 1-586 M573W) with M133W, W573M
Excerpt: as §1
Each non-aromatic residue was mutated to tryptophan, which was expected to cause steric occlusion. […]
Whole-cell patch-clamp recording was performed as previously described[6],[22],[25]. Recordings were made with an Axopatch 200B amplifier, digitized with a Digidata 1322a 16-bit data acquisition system, acquired with pClamp 8.2 and analyzed with Clampfit 10 (Molecular Devices). […]

Compound: C=C(C)COc1ccccc1NC(=O)c1nc[nH]c1C [C2.2]
- Hill coefficient (DrOTOP1 M573W): 1.238
- inhibition at 3 µM (DrOTOP1 M573W; 3 µM, single cells): 4.02%
- inhibition at 30 µM (DrOTOP1 M573W; 30 µM, single cells): 46.6%
- inhibition at 100 µM (DrOTOP1 M573W; 100 µM, single cells): 84.3%
- inhibition at 300 µM (DrOTOP1 M573W; 300 µM, single cells): 91.4%
- IC50 (DrOTOP1 M573W; pH 5.5): 30.4 µM
- Inhibition of currents (DrOTOP1 M133W; 10 µM, single cells or mean, mean): 71.39%
- Inhibition of currents (DrOTOP1 M133W; 10 µM, single cells or mean, single cells): 74.2591% and 52.599% and 79.1509% and 79.3522% and 71.5803%

Compound: O=C(/C(=N\O)c1ccccc1)c1ccccc1 [C11, benzil monoxime]
- Inhibition of currents (DrOTOP1 M573W; 100 µM, single cells): 53.3175% and 66.3617% and 67.3077% and 51.54%
- inhibition at 100 µM (DrOTOP1 M573W; 100 µM, single cells): 51.6%
- Inhibition of currents (DrOTOP1 M133W; 100 µM, single cells): 51.1084% and 50.3496% and 47.6418% and 59.4138% and 72.1088%
